Measured values from patent publication US9676782B2, “Substituted pyrazolo[1,5-a]pyrazines as negative allosteric modulators of metabotropic glutamate receptor 3” (Vanderbilt University, priority 2014, dated 2017).
Where two headings read alike, the source gives them in different places.

What was measured:
[1] = molecular target: rat mGlu3 (Rattus norvegicus (Rat), UniProt P31422); test: mGlu3 Ca2+ flux assay; type: cell-based; details: for IC50: read-out: rat mGlu3 IC50; for remaining activity at 30 µM: amplitude of response at 30 μM test compound as % of maximal response to glutamate, read-out: rat mGlu3 Glu max (%)
rat mGlu3, sequence (P31422 23-879): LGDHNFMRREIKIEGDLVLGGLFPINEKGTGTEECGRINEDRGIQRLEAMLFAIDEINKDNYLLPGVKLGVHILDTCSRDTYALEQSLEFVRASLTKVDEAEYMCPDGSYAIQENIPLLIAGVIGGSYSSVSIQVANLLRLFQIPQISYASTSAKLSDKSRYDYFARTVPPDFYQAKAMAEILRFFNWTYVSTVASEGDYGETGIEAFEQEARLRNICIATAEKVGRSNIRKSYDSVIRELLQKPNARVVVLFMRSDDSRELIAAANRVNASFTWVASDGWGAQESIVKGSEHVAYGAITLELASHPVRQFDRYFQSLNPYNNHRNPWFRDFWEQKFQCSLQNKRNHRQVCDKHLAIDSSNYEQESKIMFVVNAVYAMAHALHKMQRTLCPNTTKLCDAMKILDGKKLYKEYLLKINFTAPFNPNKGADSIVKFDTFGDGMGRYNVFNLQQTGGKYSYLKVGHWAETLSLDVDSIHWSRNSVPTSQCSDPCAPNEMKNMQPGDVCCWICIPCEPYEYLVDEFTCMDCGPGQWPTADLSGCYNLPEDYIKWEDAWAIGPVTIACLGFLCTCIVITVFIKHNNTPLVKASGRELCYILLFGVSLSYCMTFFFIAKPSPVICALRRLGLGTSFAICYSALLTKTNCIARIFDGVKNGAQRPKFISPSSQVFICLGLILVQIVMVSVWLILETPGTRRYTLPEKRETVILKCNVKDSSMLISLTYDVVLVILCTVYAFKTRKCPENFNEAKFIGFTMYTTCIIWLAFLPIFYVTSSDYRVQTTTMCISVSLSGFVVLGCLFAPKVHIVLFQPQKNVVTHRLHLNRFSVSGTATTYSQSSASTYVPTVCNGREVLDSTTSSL
Method in brief: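 Cells expressing rat mGlu3 were grown overnight at 37° C. under 5% CO2, then loaded with dye. After dye removal they received 20 μL of assay buffer and sat 10 minutes at room temperature. Calcium flux was read on a Hamamatsu FDSS7000, and fluorescence was expressed as fold over basal and normalized to the maximal glutamate response.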

[2] = molecular target: rat mGlu5 (Rattus norvegicus (Rat), UniProt P31424); test: mGlu5 Ca2+ flux assay; type: cell-based; details: for Fold selectivity (mGlu3 vs. mGlu5): ratio of rat mGlu5 EC50 or IC50 to rat mGlu3 IC50; for EC50: read-out: rat mGlu5 EC50 or IC50
rat mGlu5, sequence (P31424 21-1203): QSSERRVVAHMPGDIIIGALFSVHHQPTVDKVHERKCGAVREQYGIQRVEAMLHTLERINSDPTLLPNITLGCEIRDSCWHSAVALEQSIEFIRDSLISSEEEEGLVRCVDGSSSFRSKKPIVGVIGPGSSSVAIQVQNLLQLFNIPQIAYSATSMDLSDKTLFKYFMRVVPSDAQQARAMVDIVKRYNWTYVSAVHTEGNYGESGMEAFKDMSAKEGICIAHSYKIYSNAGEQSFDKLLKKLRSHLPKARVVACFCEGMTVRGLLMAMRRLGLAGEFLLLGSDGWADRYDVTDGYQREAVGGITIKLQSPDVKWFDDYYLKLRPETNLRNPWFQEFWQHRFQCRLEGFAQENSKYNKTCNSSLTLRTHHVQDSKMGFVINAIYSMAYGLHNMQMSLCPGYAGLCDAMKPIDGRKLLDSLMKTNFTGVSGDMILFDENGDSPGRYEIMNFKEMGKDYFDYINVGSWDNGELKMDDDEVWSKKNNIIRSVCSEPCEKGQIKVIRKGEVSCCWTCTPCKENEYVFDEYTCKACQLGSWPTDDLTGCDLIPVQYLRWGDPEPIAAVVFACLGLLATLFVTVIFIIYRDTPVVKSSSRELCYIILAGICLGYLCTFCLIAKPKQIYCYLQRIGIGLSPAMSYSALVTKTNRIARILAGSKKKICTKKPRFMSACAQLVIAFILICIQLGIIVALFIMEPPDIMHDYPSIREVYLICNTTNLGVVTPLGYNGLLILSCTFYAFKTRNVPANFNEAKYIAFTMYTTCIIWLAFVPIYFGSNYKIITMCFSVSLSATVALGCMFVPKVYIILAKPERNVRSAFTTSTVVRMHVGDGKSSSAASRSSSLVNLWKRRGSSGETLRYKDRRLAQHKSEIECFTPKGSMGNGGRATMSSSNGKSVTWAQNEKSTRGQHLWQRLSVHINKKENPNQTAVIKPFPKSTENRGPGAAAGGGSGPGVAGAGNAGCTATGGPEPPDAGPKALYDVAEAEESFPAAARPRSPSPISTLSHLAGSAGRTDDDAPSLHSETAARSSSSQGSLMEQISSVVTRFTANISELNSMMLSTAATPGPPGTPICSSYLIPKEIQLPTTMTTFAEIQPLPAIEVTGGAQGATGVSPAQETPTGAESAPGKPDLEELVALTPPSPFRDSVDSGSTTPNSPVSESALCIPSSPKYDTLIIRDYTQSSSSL
Method in brief: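 Transfected cells grown overnight at 37° C/5% CO2, dye-loaded, then 5 min in assay buffer at RT before Ca2+ flux read on FDSS7000. Fluorescence as F/F0 fold over basal, normalized to maximal glutamate response; EC50 from unconstrained 4-parameter logistic fit, triplicates weighted evenly.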

[3] = NAM potency, decrease of glutamate EC80 response, >30,000 = no measurable activity, >10,000 = no plateau

Q: What does the source list for `O=C1c2cc(CNc3ccc(OC(F)F)cc3F)nn2CCN1c1cccc(F)c1` [Compound 95, 2-(((4-(Difluoromethoxy)-2-fluorophenyl)amino)methyl)-5-(3-fluorophenyl)-6,7-dihydropyrazolo[1,5-a]pyrazin-4(5H)-one]?
A: IC50 [1, 3]: 588 nM; remaining activity at 30 µM [1]: 3.43%; Emax at 30 µM ([2]; PAM, amplitude of response at 30 μM test compound as % of maximal response to glutamate, read-out: rat mGlu5 Glu max (%)): 31.1%; Fold selectivity (mGlu3 vs. mGlu5) [2]: >17; EC50 [2]: > 10000 nM

Q: For `COc1ccc(N(C)Cc2cc3n(n2)CCN(c2ccc(Cl)cc2)C3=O)cc1` [Compound 96, 5-(4-chlorophenyl)-2-(((4-methoxyphenyl)(methyl)amino)methyl)-6,7-dihydropyrazolo[1,5-a]pyrazin-4(5H)-one], which IC50 [1, 3] is on record?
A: 585 nM

Q: And the remaining activity at 30 µM [1]?
A: 1.61%

Q: And the “Fold selectivity (mGlu3 vs. mGlu5)” value [2]?
A: >51

Q: What about the EC50 [2] of the same molecule?
A: > 30000 nM

Q: For `COc1ccc(N(C)Cc2cc3n(n2)CCN(c2ccc(F)c(F)c2)C3=O)cc1` [Compound 97, 5-(3,4-difluorophenyl)-2-(((4-methoxyphenyl)(methyl)amino)methyl)-6,7-dihydropyrazolo[1,5-a]pyrazin-4(5H)-one], which IC50 [1, 3] is on record?
A: 1080 ± 240 nM

Q: And the remaining activity at 30 µM [1]?
A: 1.74 ± 0.56%

Q: And the “Fold selectivity (mGlu3 vs. mGlu5)” value [2]?
A: >27

Q: What about the EC50 [2] of the same molecule?
A: > 30000 nM

Q: `COc1ccc(N(C)Cc2cc3n(n2)CCN(c2cccc(Cl)c2)C3=O)cc1` [Compound 98, 5-(3-chlorophenyl)-2-(((4-methoxyphenyl)(methyl)amino)methyl)-6,7-dihydropyrazolo[1,5-a]pyrazin-4(5H)-one] was tested. Which IC50 [1, 3] did it give?
A: 668 nM

Q: And the remaining activity at 30 µM [1]?
A: 1.53%

Q: What about the “Fold selectivity (mGlu3 vs. mGlu5)” value [2] of the same molecule?
A: >44

Q: And the EC50 [2]?
A: > 30000 nM

Q: Which IC50 [1, 3] does the source give for `COc1ccc(N(C)Cc2cc3n(n2)CCN(c2ccc(C)cc2)C3=O)cc1` [Compound 99, 2-(((4-methoxyphenyl)(methyl)amino)methyl)-5-(p-tolyl)-6,7-dihydropyrazolo[1,5-a]pyrazin-4(5H)-one] here?
A: 675 nM

Q: What about the remaining activity at 30 µM [1] of the same molecule?
A: 1.2%

Q: What about the “Fold selectivity (mGlu3 vs. mGlu5)” value [2] of the same molecule?
A: >44

Q: What about the EC50 [2] of the same molecule?
A: > 30000 nM

Q: Which results are given for `COc1ccc(N(C)Cc2cc3n(n2)CCN(c2ccccc2Cl)C3=O)cc1` [Compound 100, 5-(2-chlorophenyl)-2-(((4-methoxyphenyl)(methyl)amino)methyl)-6,7-dihydropyrazolo[1,5-a]pyrazin-4(5H)-one]?
A: IC50 [1, 3]: 777 nM; remaining activity at 30 µM [1]: 1.8%; Fold selectivity (mGlu3 vs. mGlu5) [2]: >38; EC50 [2]: > 30000 nM

Q: `COc1ccc(N(C)Cc2cc3n(n2)CCN(c2cccc(F)c2)C3=O)cc1` [Compound 101, 5-(3-fluorophenyl)-2-(((4-methoxyphenyl)(methyl)amino)methyl)-6,7-dihydropyrazolo[1,5-a]pyrazin-4(5H)-one] was tested. Which IC50 [1, 3] did it give?
A: 783 nM

Q: What about the remaining activity at 30 µM [1] of the same molecule?
A: 1.57%

Q: And the “Fold selectivity (mGlu3 vs. mGlu5)” value [2]?
A: >38

Q: And the EC50 [2]?
A: > 30000 nM

Q: Which results are given for `COc1ccc(N(C)Cc2cc3n(n2)CCN(c2c(F)cc(F)cc2F)C3=O)cc1` [Compound 102, 2-(((4-methoxyphenyl)(methyl)amino)methyl)-5-(2,4,6-trifluorophenyl)-6,7-dihydropyrazolo[1,5-a]pyrazin-4(5H)-one]?
A: IC50 [1, 3]: 801 nM; remaining activity at 30 µM [1]: 1.68%; Fold selectivity (mGlu3 vs. mGlu5) [2]: >37; EC50 [2]: > 30000 nM

Q: How did the IC50 [1, 3] turn out when `COc1ccc(N(C)Cc2cc3n(n2)CCN(c2cccc(C)c2)C3=O)cc1` [Compound 103, 2-(((4-methoxyphenyl)(methyl)amino)methyl)-5-(m-tolyl)-6,7-dihydropyrazolo[1,5-a]pyrazin-4(5H)-one] was run?
A: 805 nM

Q: What about the remaining activity at 30 µM [1] of the same molecule?
A: 1.16%

Q: And the “Fold selectivity (mGlu3 vs. mGlu5)” value [2]?
A: >37

Q: What about the EC50 [2] of the same molecule?
A: > 30000 nM

Q: What does the source list for `COc1ccc(N(C)Cc2cc3n(n2)CCN(c2cc(F)cc(F)c2)C3=O)cc1` [Compound 104, 5-(3,5-difluorophenyl)-2-(((4-methoxyphenyl)(methyl)amino)methyl)-6,7-dihydropyrazolo[1,5-a]pyrazin-4(5H)-one]?
A: IC50 [1, 3]: 856 nM; remaining activity at 30 µM [1]: 1.3%; Fold selectivity (mGlu3 vs. mGlu5) [2]: >35; EC50 [2]: > 30000 nM

Q: Which results are given for `COc1ccc(N(C)Cc2cc3n(n2)CCN(c2ccccc2F)C3=O)cc1` [Compound 105, 5-(2-fluorophenyl)-2-(((4-methoxyphenyl)(methyl)amino)methyl)-6,7-dihydropyrazolo[1,5-a]pyrazin-4(5H)-one]?
A: IC50 [1, 3]: 871 nM; remaining activity at 30 µM [1]: 2.05%; Fold selectivity (mGlu3 vs. mGlu5) [2]: >34; EC50 [2]: > 30000 nM

Q: How did the remaining activity at 30 µM [1] turn out when `COc1ccc(N(C)Cc2cc3n(n2)CCN(c2cc(F)ccc2F)C3=O)cc1` [Compound 106, 5-(2,5-difluorophenyl)-2-(((4-methoxyphenyl)(methyl)amino)methyl)-6,7-dihydropyrazolo[1,5-a]pyrazin-4(5H)-one] was run?
A: 0.79%

Q: What about the IC50 [1] of the same molecule?
A: 1020 nM

Q: And the “Fold selectivity (mGlu3 vs. mGlu5)” value [2]?
A: >29

Q: What about the EC50 [2] of the same molecule?
A: > 30000 nM

Q: For `COc1ccc(N(C)Cc2cc3n(n2)CCN(c2cccc(F)c2F)C3=O)cc1` [Compound 107, 5-(2,3-difluorophenyl)-2-(((4-methoxyphenyl)(methyl)amino)methyl)-6,7-dihydropyrazolo[1,5-a]pyrazin-4(5H)-one], which IC50 [1, 3] is on record?
A: 1030 nM

Q: And the remaining activity at 30 µM [1]?
A: 1.67%

Q: What about the “Fold selectivity (mGlu3 vs. mGlu5)” value [2] of the same molecule?
A: >29

Q: And the EC50 [2]?
A: > 30000 nM

Q: Which results are given for `COc1ccc(N(C)Cc2cc3n(n2)CCN(c2ccc(C)cc2F)C3=O)cc1` [Compound 108, 5-(2-fluoro-4-methylphenyl)-2-(((4-methoxyphenyl)(methyl)amino)methyl)-6,7-dihydropyrazolo[1,5-a]pyrazin-4(5H)-one]?
A: IC50 [1, 3]: 1250 nM; remaining activity at 30 µM [1]: 0.97%; Fold selectivity (mGlu3 vs. mGlu5) [2]: >24; EC50 [2]: > 30000 nM

Q: With `COc1ccc(N(C)Cc2cc3n(n2)CCN(c2ccc(F)cc2C)C3=O)cc1` [Compound 109, 5-(4-fluoro-2-methylphenyl)-2-(((4-methoxyphenyl)(methyl)amino)methyl)-6,7-dihydropyrazolo[1,5-a]pyrazin-4(5H)-one] as the molecule, how does the IC50 [1, 3] read?
A: 1320 nM

Q: And the remaining activity at 30 µM [1]?
A: 2.13%

Q: What about the “Fold selectivity (mGlu3 vs. mGlu5)” value [2] of the same molecule?
A: >22

Q: What about the EC50 [2] of the same molecule?
A: > 30000 nM

Q: Which IC50 [1, 3] does the source give for `COc1ccc(N(C)Cc2cc3n(n2)CCN(c2c(F)cccc2F)C3=O)cc1` [Compound 110, 5-(2,6-difluorophenyl)-2-(((4-methoxyphenyl)(methyl)amino)methyl)-6,7-dihydropyrazolo[1,5-a]pyrazin-4(5H)-one] here?
A: 1640 nM

Q: What about the remaining activity at 30 µM [1] of the same molecule?
A: 1.75%

Q: And the “Fold selectivity (mGlu3 vs. mGlu5)” value [2]?
A: >18

Q: What about the EC50 [2] of the same molecule?
A: > 30000 nM

Q: How did the IC50 [1, 3] turn out when `COc1ccc(N(C)Cc2cc3n(n2)CCN(c2ccccc2C)C3=O)cc1` [Compound 111, 2-(((4-methoxyphenyl)(methyl)amino)methyl)-5-(o-tolyl)-6,7-dihydropyrazolo[1,5-a]pyrazin-4(5H)-one] was run?
A: 2000 nM

Q: And the remaining activity at 30 µM [1]?
A: 0.74%

Q: What about the “Fold selectivity (mGlu3 vs. mGlu5)” value [2] of the same molecule?
A: >15

Q: And the EC50 [2]?
A: > 30000 nM

Q: `COc1ccc(N(C)Cc2cc3n(n2)CCN(c2ccccc2C#N)C3=O)cc1` [Compound 112, 2-(2-(((4-methoxyphenyl)(methyl)amino)methyl)-4-oxo-6,7-dihydropyrazolo[1,5-a]pyrazin-5(4H)-yl)benzonitrile] was tested. Which IC50 [1, 3] did it give?
A: 3790 nM

Q: What about the remaining activity at 30 µM [1] of the same molecule?
A: 1.1%

Q: And the “Fold selectivity (mGlu3 vs. mGlu5)” value [2]?
A: >7.9

Q: What about the EC50 [2] of the same molecule?
A: > 30000 nM

Q: `COc1ccc(N(C)Cc2cc3n(n2)CCN(c2cccc(OC)c2)C3=O)cc1` [Compound 113, 5-(3-methoxyphenyl)-2-(((4-methoxyphenyl)(methyl)amino)methyl)-6,7-dihydropyrazolo[1,5-a]pyrazin-4(5H)-one] was tested. Which IC50 [1, 3] did it give?
A: 1120 nM

Q: And the remaining activity at 30 µM [1]?
A: 0.7%

Q: And the “Fold selectivity (mGlu3 vs. mGlu5)” value [2]?
A: >26

Q: What about the EC50 [2] of the same molecule?
A: > 30000 nM

Q: `COc1ccc(N(C)Cc2cc3n(n2)CCN(c2ccc(OC)cc2)C3=O)cc1` [Compound 114, 5-(4-methoxyphenyl)-2-(((4-methoxyphenyl)(methyl)amino)methyl)-6,7-dihydropyrazolo[1,5-a]pyrazin-4(5H)-one] was tested. Which IC50 [1, 3] did it give?
A: 1370 nM

Q: And the remaining activity at 30 µM [1]?
A: 1.7%

Q: And the “Fold selectivity (mGlu3 vs. mGlu5)” value [2]?
A: >21

Q: What about the EC50 [2] of the same molecule?
A: > 30000 nM

Q: How did the IC50 [1, 3] turn out when `COc1ccc(N(C)Cc2cc3n(n2)CCN(c2csc(C)n2)C3=O)cc1` [Compound 115, 2-(((4-methoxyphenyl)(methyl)amino)methyl)-5-(2-methylthiazol-4-yl)-6,7-dihydropyrazolo[1,5-a]pyrazin-4(5H)-one] was run?
A: 1620 nM

Q: And the remaining activity at 30 µM [1]?
A: 3.88%

Q: What about the “Fold selectivity (mGlu3 vs. mGlu5)” value [2] of the same molecule?
A: >18

Q: What about the EC50 [2] of the same molecule?
A: > 30000 nM

Q: How did the IC50 [1, 3] turn out when `COc1ccc(N(C)Cc2cc3n(n2)CCN(c2cccc(C#N)c2)C3=O)cc1` [Compound 116, 3-(2-(((4-methoxyphenyl)(methyl)amino)methyl)-4-oxo-6,7-dihydropyrazolo[1,5-a]pyrazin-5(4H)-yl)benzonitrile] was run?
A: 2210 nM

Q: And the remaining activity at 30 µM [1]?
A: 1.55%

Q: What about the “Fold selectivity (mGlu3 vs. mGlu5)” value [2] of the same molecule?
A: >13

Q: And the EC50 [2]?
A: > 30000 nM

Q: With `COc1ccc(N(C)Cc2cc3n(n2)CCN(c2ccccn2)C3=O)cc1` [Compound 117, 2-(((4-methoxyphenyl)(methyl)amino)methyl)-5-(pyridin-2-yl)-6,7-dihydropyrazolo[1,5-a]pyrazin-4(5H)-one] as the molecule, how does the IC50 [1, 3] read?
A: 2730 nM

Q: What about the remaining activity at 30 µM [1] of the same molecule?
A: 1.59%

Q: And the “Fold selectivity (mGlu3 vs. mGlu5)” value [2]?
A: >10

Q: And the EC50 [2]?
A: > 30000 nM

Q: How did the IC50 [1, 3] turn out when `COc1ccc(N(C)Cc2cc3n(n2)CCN(c2ccc(C#N)cc2)C3=O)cc1` [Compound 118, 4-(2-(((4-methoxyphenyl)(methyl)amino)methyl)-4-oxo-6,7-dihydropyrazolo[1,5-a]pyrazin-5(4H)-yl)benzonitrile] was run?
A: 1970 nM

Q: And the remaining activity at 30 µM [1]?
A: 1.63%

Q: What about the “Fold selectivity (mGlu3 vs. mGlu5)” value [2] of the same molecule?
A: >15

Q: What about the EC50 [2] of the same molecule?
A: > 30000 nM
